In general, Ki refers to a measure of affinity in units of concentration, obtained from inhibition or displacement.

From ChEMBL document CHEMBL1133242, “Selective alpha1a adrenergic receptor antagonists based on 4-aryl-3,4-dihydropyridine-2-ones” (Bioorg Med Chem Lett, 2000) come the findings set out here.

For assay [1], the target named is T1, Alpha-2A adrenergic receptor (Homo sapiens, UniProt P08913).
T1 sequence (P08913 whole entry): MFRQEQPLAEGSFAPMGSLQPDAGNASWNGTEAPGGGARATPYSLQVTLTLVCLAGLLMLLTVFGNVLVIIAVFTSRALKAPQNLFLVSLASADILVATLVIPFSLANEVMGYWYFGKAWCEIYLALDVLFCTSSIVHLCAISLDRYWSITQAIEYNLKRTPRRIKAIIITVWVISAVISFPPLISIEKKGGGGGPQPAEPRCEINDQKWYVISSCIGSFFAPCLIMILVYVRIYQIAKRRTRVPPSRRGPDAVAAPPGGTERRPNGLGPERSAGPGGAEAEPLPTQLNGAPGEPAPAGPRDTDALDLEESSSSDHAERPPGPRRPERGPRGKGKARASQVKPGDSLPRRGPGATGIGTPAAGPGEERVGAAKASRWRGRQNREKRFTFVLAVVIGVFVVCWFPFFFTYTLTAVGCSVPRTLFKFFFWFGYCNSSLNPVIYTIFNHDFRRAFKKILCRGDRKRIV
The assay can be described thus: […] inhibitory effect against Alpha-2A adrenergic receptor.

For assay [2], the target named is T2, Alpha-1B adrenergic receptor (Homo sapiens, UniProt P35368).
T2 sequence (P35368 whole entry): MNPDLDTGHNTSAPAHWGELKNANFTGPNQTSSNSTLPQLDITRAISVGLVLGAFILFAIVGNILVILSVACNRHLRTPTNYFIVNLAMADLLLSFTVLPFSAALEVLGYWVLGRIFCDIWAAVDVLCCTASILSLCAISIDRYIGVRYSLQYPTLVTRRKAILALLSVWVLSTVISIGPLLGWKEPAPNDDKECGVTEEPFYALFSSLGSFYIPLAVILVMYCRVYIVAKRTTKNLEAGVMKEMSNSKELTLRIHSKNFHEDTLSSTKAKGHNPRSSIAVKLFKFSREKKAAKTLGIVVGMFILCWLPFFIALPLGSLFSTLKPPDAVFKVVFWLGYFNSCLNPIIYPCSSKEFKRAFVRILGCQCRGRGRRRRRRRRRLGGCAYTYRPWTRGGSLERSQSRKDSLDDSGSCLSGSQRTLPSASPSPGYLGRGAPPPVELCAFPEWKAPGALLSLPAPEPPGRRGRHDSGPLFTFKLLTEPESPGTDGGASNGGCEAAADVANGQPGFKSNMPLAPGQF
Briefly: In vitro antagonism at Alpha-1B adrenergic receptor. The assay is classed as functional.

Assay [3] addresses T3, Alpha-2C adrenergic receptor (Homo sapiens, UniProt P18825).
T3 sequence (P18825 whole entry): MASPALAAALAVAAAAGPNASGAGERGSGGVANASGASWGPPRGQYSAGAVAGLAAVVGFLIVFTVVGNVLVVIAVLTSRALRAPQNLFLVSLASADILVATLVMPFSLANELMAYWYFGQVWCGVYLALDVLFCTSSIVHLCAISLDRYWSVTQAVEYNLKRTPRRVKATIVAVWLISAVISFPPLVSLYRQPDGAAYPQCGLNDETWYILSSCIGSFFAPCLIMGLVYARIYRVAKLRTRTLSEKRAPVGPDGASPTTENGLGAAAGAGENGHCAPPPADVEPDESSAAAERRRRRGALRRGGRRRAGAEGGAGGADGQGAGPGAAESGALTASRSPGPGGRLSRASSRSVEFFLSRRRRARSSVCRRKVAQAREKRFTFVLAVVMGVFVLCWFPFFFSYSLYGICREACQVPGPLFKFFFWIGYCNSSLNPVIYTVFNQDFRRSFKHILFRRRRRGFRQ
Briefly: […] inhibitory effect against Alpha-2C adrenergic receptor.

In assay [4] the target is T4, Alpha-2B adrenergic receptor (Homo sapiens, UniProt P18089).
T4 sequence (P18089 whole entry): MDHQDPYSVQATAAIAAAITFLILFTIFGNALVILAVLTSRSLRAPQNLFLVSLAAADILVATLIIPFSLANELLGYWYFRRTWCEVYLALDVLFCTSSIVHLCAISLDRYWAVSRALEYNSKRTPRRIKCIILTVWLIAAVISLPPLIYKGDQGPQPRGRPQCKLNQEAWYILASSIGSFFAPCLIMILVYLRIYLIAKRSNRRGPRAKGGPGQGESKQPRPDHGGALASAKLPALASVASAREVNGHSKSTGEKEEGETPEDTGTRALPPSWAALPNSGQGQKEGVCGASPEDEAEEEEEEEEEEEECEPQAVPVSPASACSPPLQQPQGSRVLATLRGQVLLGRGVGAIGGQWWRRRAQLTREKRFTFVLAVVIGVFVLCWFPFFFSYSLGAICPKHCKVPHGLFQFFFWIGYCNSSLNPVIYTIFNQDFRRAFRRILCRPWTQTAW
The assay can be described thus: […] inhibitory effect against alpha-2b Adrenergic receptor.

The target of assay [5] is T5, Alpha-1D adrenergic receptor (Homo sapiens, UniProt P25100).
T5 sequence (P25100 whole entry): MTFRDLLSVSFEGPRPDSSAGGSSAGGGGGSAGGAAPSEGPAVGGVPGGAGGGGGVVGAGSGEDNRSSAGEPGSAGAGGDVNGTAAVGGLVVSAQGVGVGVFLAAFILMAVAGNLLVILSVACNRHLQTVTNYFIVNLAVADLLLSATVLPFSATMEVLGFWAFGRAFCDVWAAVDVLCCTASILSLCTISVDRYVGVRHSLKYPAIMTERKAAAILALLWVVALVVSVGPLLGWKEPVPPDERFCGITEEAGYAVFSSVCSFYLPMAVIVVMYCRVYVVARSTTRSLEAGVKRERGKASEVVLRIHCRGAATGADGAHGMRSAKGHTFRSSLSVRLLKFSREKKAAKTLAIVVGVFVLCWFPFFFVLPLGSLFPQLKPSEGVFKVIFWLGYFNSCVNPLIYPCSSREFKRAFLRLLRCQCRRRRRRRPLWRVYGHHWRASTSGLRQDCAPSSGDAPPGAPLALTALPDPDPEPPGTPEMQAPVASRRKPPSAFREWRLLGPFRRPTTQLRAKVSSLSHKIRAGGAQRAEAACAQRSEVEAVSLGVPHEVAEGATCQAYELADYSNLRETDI
Briefly: In vitro antagonism at Alpha-1D adrenergic receptor. In kind it is functional.

Assay [6] concerns the target T6, Alpha-1A adrenergic receptor (Homo sapiens, UniProt P35348).
T6 sequence (P35348 whole entry): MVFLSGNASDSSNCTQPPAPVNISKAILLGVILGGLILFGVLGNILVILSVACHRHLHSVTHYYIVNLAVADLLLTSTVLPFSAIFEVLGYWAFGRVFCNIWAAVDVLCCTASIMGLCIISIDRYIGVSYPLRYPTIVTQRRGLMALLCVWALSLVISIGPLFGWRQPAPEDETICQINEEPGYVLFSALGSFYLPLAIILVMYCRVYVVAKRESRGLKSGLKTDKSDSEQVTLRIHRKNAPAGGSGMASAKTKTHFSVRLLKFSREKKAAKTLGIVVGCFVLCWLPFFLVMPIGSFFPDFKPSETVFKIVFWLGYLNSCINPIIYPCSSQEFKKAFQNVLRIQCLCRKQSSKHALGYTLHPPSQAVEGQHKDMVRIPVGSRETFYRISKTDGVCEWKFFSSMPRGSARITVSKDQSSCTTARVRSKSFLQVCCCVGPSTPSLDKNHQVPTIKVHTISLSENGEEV
The assay can be described thus: In vitro antagonism at Alpha-1A adrenergic receptor. In kind it is functional.

Another assay addresses Histamine H1 receptor (Homo sapiens, UniProt P35367). Briefly: Selectivity screen against human Histamine H1 receptor.
For a further assay, the species on record is Rattus norvegicus. Briefly: Dose required to inhibit the prostate contractile response by 50% after challenge with selective alpha-1a agonist A61603 and duration of action was 1.5h in an in situ rat prostate model. In kind it is functional, Prostate gland.

Histamine H1 receptor, sequence (P35367 whole entry): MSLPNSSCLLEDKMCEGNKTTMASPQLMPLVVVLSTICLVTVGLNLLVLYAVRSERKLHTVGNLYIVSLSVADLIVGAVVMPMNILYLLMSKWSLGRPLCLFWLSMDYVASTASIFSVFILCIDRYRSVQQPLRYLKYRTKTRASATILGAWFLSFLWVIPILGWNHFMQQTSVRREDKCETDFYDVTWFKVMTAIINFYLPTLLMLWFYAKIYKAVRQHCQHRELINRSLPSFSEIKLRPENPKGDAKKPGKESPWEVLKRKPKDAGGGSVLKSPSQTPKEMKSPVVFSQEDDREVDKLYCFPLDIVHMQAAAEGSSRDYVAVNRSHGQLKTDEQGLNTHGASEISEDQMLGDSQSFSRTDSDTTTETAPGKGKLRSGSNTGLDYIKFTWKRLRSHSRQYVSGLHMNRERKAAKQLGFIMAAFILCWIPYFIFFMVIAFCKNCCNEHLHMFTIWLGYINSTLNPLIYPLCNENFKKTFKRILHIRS

Take `CC1=C(C(=O)NCCCN2CCC(C#N)(c3ccc(F)cc3F)CC2)[C@@H](c2ccc(F)c(F)c2)CC(=O)N1`: the Ki in assay [1] is 1970 nM; in assay [2] it was 805 nM; in assay [3], 2000 nM; in assay [4], 531 nM; in assay [5], 588 nM; in assay [6], 1 nM. Besides, the Ki at Histamine H1 receptor was 108 nM. The AD50 in the assay listed under Rattus norvegicus came out at 0.017 mg/kg.
